Measurements as given in patent publication US11219222B2, “Topical mosquito control product” (Penta 5 USA, LLC, priority 2016, dated 2022).
“And” between values parts separate entries of the source, which are not always exact repeats. Identical values can stand only once.

How the values were obtained:
Format in all cases: in vivo
Aedes aegypti mosquitos = test: Arm-in-cage test, protective efficacy; details: for No. probing on treated arm: 30 seconds exposure; for No. probing on treated arm / % PE: per replicate cage; for Total % PE: three cages
Procedure: Additional testing was performed with the lotion formula of example 4 including: bee's wax, soybean oil, edible oil such as sunflower oil, isopropyl alcohol, cinnamon oil, cedar wood oil, citronella oil, turmeric, anise, basil oil, salt, ethyl ester, and water with the following protocols. Aedes aegypti mmosquitoes were obtained from insecticide-susceptible reference strains held at the London School of Hygiene & Tropical Medicine, UK. All mosquitoes are reared and housed under optimal environmental conditions of 25° C. ±2° C. and 80% Relative Humidity with a 12:12 hour photoperiod. Testing was carried out in a testing room maintained at […] and 80% RH with a 12:12 hour photoperiod. For each product, the same person carried out the arm-in-cage testing.
For each product test, three batches of 50 female mosquitoes were placed in cages 30×30×30 cm inside the testing room. Before the start of each test a bare arm with gloved hand was inserted into the cage for 30 seconds to assess the biting readiness of the mosquitoes. Only cages with at least ten mosquitoes landing within 30 seconds were used in subsequent testing. The number of mosquitoes probing the untreated arm was counted at the end of the 30 second test. Following the combined fitness/control test, the product was applied onto the right arm at the WHO standard rate of 1 ml per 600 cm2 ([…] per cm2) for the Mosquito Insect Repellent and DEET, and at a rate of 2 mg per cm′ for the Sunscreen Repellent. The arm was then inserted into the cage for 30 seconds and the number of mosquitoes probing on the arm counted and recorded. The procedure was repeated with a total of three cages. This was repeated for each of the three cages and at hourly intervals until 8 hours post-application or until protection drops below 50%. Each product was tested on a separate test day.
Protective efficacy (PE) was calculated using the following formula: PE=(Mosquitoes probing on control arm—Mosquitoes probing on treated arm)/Mosquitoes probing on control arm×100. The average probing on the control arm during testing was 16, 17 and 21 mosquitoes at the end of the 30 second exposure time, in cages used for testing the Mosquito Insect Repellent Lotion and 8% DEET respectively. The Mosquito Insect Repellent Lotion 100% protection at 0 hours, whereas the 8% DEET provided 100% protection for 1 hour after application (Table 1). The Mosquito Insect Repellent Lotion provided over 50% protection for, 3 hours, whereas 8% DEET provided over 50% protection for 6 hours.

[1] = tested on: yellow fever mosquitos, Aedes aegypti; test: In vitro K & D module biting bioassay, compositions of examples 1-3 vs DEET
Procedure: The deterrent effect of the above-described compositions of examples 1 -3 was tested in a controlled environment. In vitro laboratory tests were conducted and measured and compared to DEET and nontreated control groups for yellow fever mosquitos, Aedes aegypti. Bioassays were conducted in nine six-chambered Plexiglas K & D modules stocked with female Aedes aegypti mosquitos as shown in FIGS. 1-3. Five female mosquitos were aspirated into each of the six chambers of the nine modules. Repellant treatments were applied at 26.7 microliters with a pipette and spread with a small brush over 12 square centimeter sections of organdy cloth attached to a flat plastic template containing rectangular openings. The treated cloth covered template was fitted between the K & D module and a lower Plexiglas unit. The lower Plexiglas unit contained shallow surface wells filled with a blood substitute (CDTA and ATP) and covered with a moistened collagen membrane. The blood substitute was heated to 38° C. using water pumped through hose lines attached to the lower units and a water bath supplied with a temperature controlled inversion circulator. Mosquitos were exposed to the treated surfaces by opening sliding doors beneath the modules for 90-second biting counts at five post-treatment time intervals from 1 to 6 hours. Fresh, untreated mosquitos are used for each time interval.
The testing protocol including the in vitro environment provides a rigorous testing of the repellency of the composition as the mosquitos are confined with a blood meal.
An unpaired t-test was conducted on the biting counts between lotion as described herein and the control group where there was no treatment applied between the mosquito and the blood well. […] The statistical factors include t=5.8704 where df=16 and a standard error of difference is equal to 0.530. The two-tailed p value is less than 0.0001. The reduction in biting pressure when using the compositions compared to the control group is significant at the 99.99 level of significance.

[2] = tested on: yellow fever mosquitoes, Aedes aegypti; test: In vitro K&D module biting bioassay, example 5 (No-Bite), No-Burn and 7% DEET; details: 4 hours post-treatment; p>0.05
Procedure: The deterrent effect of the above-described compositions of example 5 (represented as NO-Bite in FIGS. 7-8) was tested in a controlled environment. In vitro laboratory tests were conducted and measured and compared to DEET and nontreated control groups for yellow fever mosquitos, Aedes aegypti. The repellency of the formulations were compared to a DEET standard, and a non-treated control against yellow fever mosquitoes, Aedes aegypti. The examples were performed in a temperature-controlled laboratory following techniques as disclosed in Klun, J. A., M. A. Kramer, A. Zhang, S. Wang, and M. Debboun. 2008. A quantitative in vitro assay for mosquito deterrent activity without human blood cells. J Am. Mosq. Contr. Assoc. 24:508-512. […] Five colony-reared female Aedes aegypti were aspirated into each chamber (FIG. 1). […] The variance in biting count means by treatment and time intervals was statistically analyzed with SAS Proc ANOVA and statistically tested for significant differences with Tukey's Studentized Range test at p<0.05 and charted with 95% Confidence Intervals (C.I.). Average % repellency was calculated with the following formula and charted by treatment and time interval: (Control Avg. Biting Count—Treatment Avg. Biting Count)÷Control Avg. […]

## CCN(CC)C(=O)c1cccc(C)c1 [8% DEET, DEET]
Aedes aegypti mosquitos; 0 hours after application
  No. probing on treated arm: 0
  % PE: 100.00%
  Total % PE: 100.00%
Aedes aegypti mosquitos; 1 hour after application
  No. probing on treated arm: 0
  % PE: 100.00%
  Total % PE: 100.00%
Aedes aegypti mosquitos; 2 hours after application
  No. probing on treated arm: 1 and 2 and 0
  % PE: 91.67% and 90.91% and 100.00%
  Total % PE: 95.00%
Aedes aegypti mosquitos; 3 hours after application
  No. probing on treated arm: 2 and 0
  % PE: 90.00% and 100.00%
  Total % PE: 95.35%
Aedes aegypti mosquitos; 4 hours after application
  No. probing on treated arm: 2 and 1 and 0
  % PE: 91.67% and 94.12% and 100.00%
  Total % PE: 95.16%
Aedes aegypti mosquitos; 5 hours after application
  No. probing on treated arm: 2 (2×) and 3
  % PE: 93.10% and 88.89% and 86.96%
  Total % PE: 90.00%
Aedes aegypti mosquitos; 6 hours after application
  No. probing on treated arm: 10 and 6 and 7
  % PE: 41.18% and 57.14% and 65.00%
  Total % PE: 54.90%
Aedes aegypti mosquitos; 7 hours after application
  No. probing on treated arm: 7 and 6 and 9
  % PE: 36.36% and 50.00% (2×)
  Total % PE: 46.34%
Aedes aegypti mosquitos; arm-in-cage, hourly intervals
  time after application for which 100% protection was provided: 1 h
  time for which over 50% protection was provided: 6 h

## CCN(CC)C(=O)c1cccc(C)c1 [DEET]
[1]; 6 hour time period
  repellency: 87.1%
[1]; average of five post-treatment time intervals
  repellency, average for all five time periods: 86.52%
[1]; initial start time of zero, 90-second biting counts, 26.7 microliters on 12 square centimeter cloth
  repellency: 91.9%
[2]
  biting activity compared with control: no significance difference
